This is an account of results in US7189754B2, “Pyrrolidine ester derivatives with oxytocin modulating activity” (Applied Research Systems ARS Holding NV, priority 2001, dated 2007).

In the assay the target is T1, human Oxytocin (hOT) receptor (Homo sapiens, UniProt P30559).
T1 construct: expressed in transfected cells; host or cells: HEK293EBNA
T1 sequence (P30559 1-389): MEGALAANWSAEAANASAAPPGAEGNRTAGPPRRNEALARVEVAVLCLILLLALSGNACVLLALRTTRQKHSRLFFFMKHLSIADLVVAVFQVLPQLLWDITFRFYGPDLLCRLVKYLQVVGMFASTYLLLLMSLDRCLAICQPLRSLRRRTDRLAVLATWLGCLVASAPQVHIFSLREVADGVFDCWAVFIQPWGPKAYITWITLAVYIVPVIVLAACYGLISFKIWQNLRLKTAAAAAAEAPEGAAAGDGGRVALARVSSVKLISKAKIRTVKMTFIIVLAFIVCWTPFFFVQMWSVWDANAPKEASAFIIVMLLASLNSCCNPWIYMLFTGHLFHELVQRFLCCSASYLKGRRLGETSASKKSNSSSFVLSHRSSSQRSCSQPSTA
Description: In vitro competition binding assay on hOT receptor with scintillation proximity assay ([125I]-OVTA). The following applies: HEK293EBNA membranes expressing hOT receptor, 0.2 nM [125I]-OVTA, SPA; read-out: Binding affinity human OT-R IC50. How it is done:
a) In Vitro Competition Binding Assay on hOT Receptor with Scintillation Proximity Assay (see Cook, N. D. et al. Pharmaceutical Manufacturing International 1992; p.49–53)
This assay allows to determine the affinity of the test compounds for the human Oxytocin (hOT) receptor. Membranes from HEK293EBNA (cells expressing the hOT receptor) were suspended in buffer containing 50 mM Tris-HCl, pH 7.4, 5 mM MgCl2 and 0.1% BSA (w/v). The membranes (2–4 μg) were mixed with 0.1 mg SPA bead coated with wheat-germ aglutinin (WGA-PVT-Polyethylene Imine beads from Amersham) and 0.2 nM of the radiolabelled [^125I]-OVTA (OVTA being Ornithin Vasoactive, an analogue of OT for competitive binding experiments). Non-specific binding was determined in the presence of 1 μM Oxytocin. The total assay volume was 100 μl. The plates (Corning® NBS plate) were incubated at room temperature for 30 min and counted on a Mibrobeta® plate scintillation counter. Competitive binding was performed in presence of compounds of formula (I) at the following concentrations: 30 μM, 10 μM, 1 μM, 300 nM, 100 nM, 10 nM, 1 nM, 100 pM, 10 pM. The competitive binding data were analysed using the iterative, nonlinear, curve-fitting program, “Prism” (GraphPad Software, Inc).
The ability of the pyrrolidine derivatives of formula (I) to inhibit the binding of ^125I-OVTA to the OT-receptor was assessed using the above described in vitro biological assay. Representative values for some example compounds are given in Table 1, where the binding affinity of the compounds is expressed by the IC50 (μM) which is the concentration upon which 50% inhibition of OT-R is achieved. From these values, it can be derived that said test compounds according to formula (I) do show a significant binding to the oxytocin receptor.
As for `CON=C1C[C@@H](C(=O)OC)N(C(=O)c2ccc(-c3ccccc3)cc2)C1` (mixture of isomers) [Methyl (2S,4EZ)-1-([1,1′-biphenyl]-4-ylcarbonyl)-4-(methoxyimino)-2-pyrrolidinecarboxylate], the IC50 came out at 0.045 µM.
With `CON=C1C[C@@H](C(=O)OC)N(C(=O)c2ccc(-c3ccccc3F)cc2)C1` (mixture of isomers) [Methyl (2S,4EZ)-4-(methoxyimino)-1-[(2′-fluoro[1,1′-biphenyl]-4-yl)carbonyl]-2-pyrrolidinecarboxylate], the IC50 was found to be 0.1 µM.
For the molecule `CON=C1C[C@@H](C(=O)OC)N(C(=O)c2ccc(-c3ccccc3C)cc2)C1` [Methyl (2S,4EZ)-4-(methoxyimino)-1-[(2′-methyl[1,1′-biphenyl]-4-yl)carbonyl]-2-pyrrolidinecarboxylate], the IC50 was 0.028 µM.
